From PubChem BioAssay (NCI)
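How tested: cells in 96-well plates exposed to compound for 48 hours at five concentrations. Definition used: TGI = concentration required for complete inhibition of growth.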

Assays:
Test in all cases: NCI anticancer screen, dose series, 48 h
786-0 renal = test system: 786-0 renal
A498 renal = test system: A498 renal
A549 NSCLC = test system: A549 NSCLC
ACHN renal = test system: ACHN renal
CAKI-1 renal = test system: CAKI-1 renal
CCRF-CEM leukemia = test system: CCRF-CEM leukemia
COLO 205 colon = test system: COLO 205 colon
DLD-1 colon = test system: DLD-1 colon
DMS 114 small cell lung = test system: DMS 114 small cell lung
DMS 273 small cell lung = test system: DMS 273 small cell lung
EKVX NSCLC = test system: EKVX NSCLC
HCC-2998 colon = test system: HCC-2998 colon
HCT-116 colon = test system: HCT-116 colon
HCT-15 colon = test system: HCT-15 colon
HL-60(TB) leukemia = test system: HL-60(TB) leukemia
HOP-18 NSCLC = test system: HOP-18 NSCLC
HOP-62 NSCLC = test system: HOP-62 NSCLC
HT29 colon = test system: HT29 colon
IGROV1 ovarian = test system: IGROV1 ovarian
K-562 leukemia = test system: K-562 leukemia
KM12 colon = test system: KM12 colon
KM20L2 colon = test system: KM20L2 colon
LXFL 529 NSCLC = test system: LXFL 529 NSCLC
M14 melanoma = test system: M14 melanoma
M19-MEL melanoma = test system: M19-MEL melanoma
MOLT-4 leukemia = test system: MOLT-4 leukemia
NCI-H23 lung = test system: NCI-H23 lung
NCI-H460 lung = test system: NCI-H460 lung
OVCAR-3 ovarian = test system: OVCAR-3 ovarian
OVCAR-4 ovarian = test system: OVCAR-4 ovarian
OVCAR-8 ovarian = test system: OVCAR-8 ovarian
RPMI-8226 leukemia = test system: RPMI-8226 leukemia
RXF 393 renal = test system: RXF 393 renal
RXF-631 renal = test system: RXF-631 renal
SF-295 CNS = test system: SF-295 CNS
SF-539 CNS = test system: SF-539 CNS
SK-MEL-2 melanoma = test system: SK-MEL-2 melanoma
SK-MEL-28 melanoma = test system: SK-MEL-28 melanoma
SK-OV-3 ovarian = test system: SK-OV-3 ovarian
SN12C renal = test system: SN12C renal
SNB-19 CNS = test system: SNB-19 CNS
SNB-75 CNS = test system: SNB-75 CNS
SNB-78 CNS = test system: SNB-78 CNS
SR leukemia = test system: SR leukemia
SW-620 colon = test system: SW-620 colon
U251 CNS = test system: U251 CNS
UACC-257 melanoma = test system: UACC-257 melanoma
UACC-62 melanoma = test system: UACC-62 melanoma
UO-31 renal = test system: UO-31 renal
XF 498 CNS = test system: XF 498 CNS

Measured: TGI

COC1/C(=C\C(=O)OC(C)(C)C)c2ccccc2N1C(C)=O (stereo not given)
> 100 µM: 786-0 renal | A498 renal | A549 NSCLC | ACHN renal | CAKI-1 renal | CCRF-CEM leukemia | COLO 205 colon | DLD-1 colon | DMS 114 small cell lung | DMS 273 small cell lung | EKVX NSCLC | HCC-2998 colon | HCT-116 colon | HCT-15 colon | HL-60(TB) leukemia | HOP-18 NSCLC | HOP-62 NSCLC | HT29 colon | IGROV1 ovarian | K-562 leukemia | KM12 colon | KM20L2 colon | LXFL 529 NSCLC | M14 melanoma | M19-MEL melanoma | MOLT-4 leukemia | NCI-H23 lung | NCI-H460 lung | OVCAR-3 ovarian | OVCAR-4 ovarian | OVCAR-8 ovarian | RPMI-8226 leukemia | RXF 393 renal | RXF-631 renal | SF-295 CNS | SF-539 CNS | SK-MEL-2 melanoma | SK-MEL-28 melanoma | SK-OV-3 ovarian | SN12C renal | SNB-19 CNS | SNB-75 CNS | SNB-78 CNS | SR leukemia | SW-620 colon | U251 CNS | UACC-257 melanoma | UACC-62 melanoma | UO-31 renal | XF 498 CNS
